Data from patent publication US20230381328A1, “COMPOUND FOR THE PREVENTION OR TREATMENT OF MYASTHENIA GRAVIS” (ABLEVIA BIOTECH GMBH, priority 2020, published 2023).

Tested on: myasthenogenic antibody mAB 198
Assay: Peptide microarray mimotope screen, binding of mAB 198 to linear and cyclic peptides (fluorescence readout)
Parameters: species or system rat
Conditions: cyclic mimotopes; binding of mAB 198, relative fluorescent signal after normalization against background
Text: A custom peptide array of 30000 peptides was synthesized, with peptides of 7-19 amino acids in size; the peptides were based on substitution analyses of 176 AChR-MIR peptides with exchanges of each amino acid positions by each of the 20 common amino acids. Peptides were synthesized directly on a microarray, and screened with monoclonal antibody mAB 198 in order to obtain mimotopes with a binding strength which was improved over the human AChR alpha chain MIR-containing sequence […] (Tzartos et al, 1991; Luo et al, 2009) and over a previously published mimotope sequence ([…]), that was derived from Torpedo AchR with the help of antibody mAB 132A (Trinh et al, 2014). In particular, the wild type AChR-MIR sequence is known to structurally mimic to a certain extent the epitope recognized by myasthenogenic, unwanted and disease-causing antibodies from patients. The mimotope peptide library was designed by permutation of each single amino acid position of these two sequences with all natural amino acids in order to provide a maximally diversified collection of peptide variants. All peptides were synthesized in doublets as linear and as cyclic peptides. The aim was to obtain peptides (mimotopes) that mimic the natural epitope of myasthenogenic antibodies.
For the mimotope screen, the antibody mAB 198 (Absolute Antibody Ltd, UK) was used. This is a prototype antibody that was generated in rats using human AChR (Tzartos et al, 1983; Asher et al, 1993). […] Therefore, mAB198 was used as a surrogate probe to screen for new mimotopes that are capable of mimicking the corresponding AChR-MIR epitope or portions of the epitope.
As a readout, binding of mAB 198 to the 30000 linear and cyclic peptides was measured by fluorescence readout, and peptides were ranked according to their relative fluorescent signal after normalization against the background.
The top-ranked 100 linear and cyclic mimotopes are listed in Table 1 and Table 2 above, respectively.

Substance	relative signal [%]
102 (RLRVNPADY) [compound 102]	61.3
103 (LRVNPADYG) [compound 103]	45.1
104 (WIDVRLRGNPA) [compound 104]	43.2
105 (RLNPADY) [compound 105]	42.3
106 (RFNPADY) [compound 106]	37.5
107 (RLRLNPADY) [compound 107]	37.3
108 (RLRGNPADY) [compound 108]	32.7
109 (DVRLRINPADY) [compound 109]	31.4
110 (DVRLRVNPADY) [compound 110]	30.2
111 (RINPADY) [compound 111]	28.9
112 (LRLNPADYG) [compound 112]	28.6
113 (LRRNPAD) [compound 113]	28.2
114 (SLRINPADY) [compound 114]	28.0
115 (DVRLRFNPADY) [compound 115]	27.7
116 (NPADYRG) [compound 116]	27.4
117 (SLRVNPADY) [compound 117]	26.5
118 (RLRINPADY) [compound 118]	25.5
119 (GGSLRINPADY) [compound 119]	25.4
120 (DVRLRGNPADY) [compound 120]	25.0
121 (WNPADYR) [compound 121]	24.9
122 (RLRYNPADY) [compound 122]	24.5
123 (RGNPADY) [compound 123]	23.8
124 (RRNPADY) [compound 124]	23.5
125 (LRRNPADYG) [compound 125]	23.4
126 (RINPADYGG) [compound 126]	23.1

Substance	relative signal [%]
127 (LRINPADYG) [compound 127]	22.8
128 (GGSLRVNPADY) [compound 128]	22.5
129 (RGNPADYGG) [compound 129]	22.2
130 (SLRLNPADY) [compound 130]	21.8
131 (DVRLRPNPADY) [compound 131]	21.3
132 (RLRFNPADY) [compound 132]	21.3
133 (WNPADYP) [compound 133]	21.1
134 (RYNPADY) [compound 134]	20.2
135 (GGSLRGNPADY) [compound 135]	19.6
136 (NPADYGR) [compound 136]	19.5
137 (RVNPADY) [compound 137]	18.7
138 (GSLRWNPADYR) [compound 138]	16.2
139 (NPADYGH) [compound 139]	15.8
140 (RPNPADY) [compound 140]	15.6
141 (SLRGNPADY) [compound 141]	15.4
142 (VRLRRNPAD) [compound 142]	14.7
143 (RTNPADY) [compound 143]	14.6
144 (GGSLRFNPADY) [compound 144]	14.5
145 (RLYWNPADY) [compound 145]	13.7
146 (GNPADYGGI) [compound 146]	13.7
147 (SLRFNPADY) [compound 147]	13.6
148 (VRLRVNPADYG) [compound 148]	13.4
149 (LRWNPADYP) [compound 149]	13.1
150 (NPADYGD) [compound 150]	12.6
151 (VNPADYG) [compound 151]	12.5

Substance	relative signal [%]
152 (GGGSLRRNPAD) [compound 152]	12.5
153 (RPRWNPADY) [compound 153]	12.4
154 (GSLRWNPADYP) [compound 154]	12.4
155 (SLRYNPADY) [compound 155]	12.2
156 (RANPADY) [compound 156]	12.2
157 (GSLRINPADYG) [compound 157]	12.1
158 (RPNPADYGG) [compound 158]	11.9
159 (NPADYGY) [compound 159]	11.8
160 (ALRWNPADY) [compound 160]	11.5
161 (GGSLRYNPADY) [compound 161]	11.5
162 (RIRWNPADY) [compound 162]	11.5
163 (RWNPADR) [compound 163]	11.0
164 (RLHWNPADY) [compound 164]	10.8
165 (QLRWNPADY) [compound 165]	10.7
166 (RLRQNPADY) [compound 166]	10.6
167 (DVRLRWNPSDY) [compound 167]	10.5
168 (VRLRWNPADYS) [compound 168]	10.5
169 (DVRLRYNPADY) [compound 169]	10.5
170 (GSLRFNPADYG) [compound 170]	10.4
171 (GGSLRWNPADR) [compound 171]	10.3
172 (LRWNPADYR) [compound 172]	10.3
173 (LRWNPADYGGF) [compound 173]	10.3
174 (GSLRWNPADYD) [compound 174]	10.2
175 (RLRWNPADYHG) [compound 175]	10.1
176 (RLRWNPADYGP) [compound 176]	10.0

Substance	relative signal [%]
177 (GSLRWNPADYN) [compound 177]	10.0
178 (VRLRINPADYG) [compound 178]	10.0
179 (LRPNPADYG) [compound 179]	10.0
180 (TLRWNPADY) [compound 180]	9.9
181 (VRLRGNPAD) [compound 181]	9.9
182 (RSRWNPADY) [compound 182]	9.8
183 (RLRPNPADY) [compound 183]	9.8
184 (RLLWNPADY) [compound 184]	9.7
185 (RLRWNPADYGS) [compound 185]	9.7
186 (GSLRWNPADYQ) [compound 186]	9.7
187 (VRLRLNPADYG) [compound 187]	9.7
188 (SLYWNPADY) [compound 188]	9.4
189 (LRGNPAD) [compound 189]	9.1
190 (RWNPADF) [compound 190]	9.1
191 (RLRGNPADYGG) [compound 191]	9.0
192 (WNPDDYR) [compound 192]	9.0
193 (LRWNPADYPGI) [compound 193]	8.9
194 (DVRLRQNPADY) [compound 194]	8.8
195 (SLRWNPADYHG) [compound 195]	8.7
196 (GSLRWNPADYT) [compound 196]	8.7
197 (NPADYGN) [compound 197]	8.7
198 (LRFNPAD) [compound 198]	8.6
